From patent publication US12044651B2, “Sensor device and methods” (SCENTIAN BIO LIMITED, priority 2016, dated 2024)

T1: Or10a (Drosophila melanogaster, UniProt Q9VYZ1)
T1 sequence (Q9VYZ1 1-406): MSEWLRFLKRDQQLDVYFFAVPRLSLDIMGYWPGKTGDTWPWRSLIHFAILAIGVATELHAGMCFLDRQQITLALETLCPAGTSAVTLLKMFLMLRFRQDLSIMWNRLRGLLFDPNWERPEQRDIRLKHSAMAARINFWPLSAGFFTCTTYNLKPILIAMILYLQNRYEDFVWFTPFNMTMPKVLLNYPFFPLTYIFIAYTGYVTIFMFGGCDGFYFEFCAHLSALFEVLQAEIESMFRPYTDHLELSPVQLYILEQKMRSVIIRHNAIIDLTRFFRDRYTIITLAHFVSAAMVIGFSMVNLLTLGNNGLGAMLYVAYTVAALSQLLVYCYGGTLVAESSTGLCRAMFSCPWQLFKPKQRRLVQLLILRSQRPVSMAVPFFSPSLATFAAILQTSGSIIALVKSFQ

T2: OR35a (Drosophila melanogaster, UniProt Q9V3Q2)
T2 sequence (Q9V3Q2 1-409): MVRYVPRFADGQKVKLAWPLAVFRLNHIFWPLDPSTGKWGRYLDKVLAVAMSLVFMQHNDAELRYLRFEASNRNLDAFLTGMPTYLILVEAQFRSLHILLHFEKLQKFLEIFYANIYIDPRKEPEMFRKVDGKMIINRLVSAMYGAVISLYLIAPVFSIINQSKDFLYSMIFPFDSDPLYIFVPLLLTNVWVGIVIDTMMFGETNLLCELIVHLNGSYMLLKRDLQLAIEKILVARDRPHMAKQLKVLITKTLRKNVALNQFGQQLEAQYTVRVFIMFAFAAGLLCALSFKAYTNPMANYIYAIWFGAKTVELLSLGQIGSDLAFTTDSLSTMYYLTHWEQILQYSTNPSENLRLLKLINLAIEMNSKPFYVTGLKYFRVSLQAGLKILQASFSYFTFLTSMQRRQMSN

T3: Or22a (Drosophila melanogaster, UniProt P81909)
T3 sequence (P81909 1-397): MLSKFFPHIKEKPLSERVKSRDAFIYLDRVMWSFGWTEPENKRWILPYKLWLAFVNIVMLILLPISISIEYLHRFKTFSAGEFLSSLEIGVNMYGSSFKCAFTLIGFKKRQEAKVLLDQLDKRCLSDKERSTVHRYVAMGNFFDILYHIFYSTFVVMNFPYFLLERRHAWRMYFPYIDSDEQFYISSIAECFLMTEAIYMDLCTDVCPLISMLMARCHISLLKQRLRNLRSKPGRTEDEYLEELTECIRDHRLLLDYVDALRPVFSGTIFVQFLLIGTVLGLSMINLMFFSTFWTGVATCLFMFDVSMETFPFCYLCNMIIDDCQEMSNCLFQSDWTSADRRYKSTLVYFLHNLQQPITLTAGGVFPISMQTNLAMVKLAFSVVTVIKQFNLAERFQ

B1: Or10a: insect odorant receptor OrX in liposomes attached to the gold electrode of the EIS sensor (protein, UniProt Q9VYZ1 1-406, looked up)
Odorant receptor 10a: T1 sequence (Q9VYZ1 1-406)
modifications: in liposomes
notes: insect odorant receptor OrX in liposomes attached to the gold electrode of the EIS sensor
B2: Or35a: insect odorant receptor OrX in liposomes attached to the gold electrode of the EIS sensor (protein, UniProt Q9V3Q2 1-409, looked up)
Odorant receptor 35a: T2 sequence (Q9V3Q2 1-409)
modifications: in liposomes
notes: as for B1
B3: Or22a: insect odorant receptor OrX in liposomes attached to the gold electrode of the EIS sensor (protein, UniProt P81909 1-397, looked up)
Odorant receptor 22a: T3 sequence (P81909 1-397)
modifications: in liposomes
notes: as for B1

Key:
BdorOBP2 = conditions: ref 39; cited from earlier work
Or10a = biological target: T1, Or10a; assay: EIS sensor, Or10a liposomes on gold electrode (Example 1); assay type: binding; conditions: lowest three concentrations
Description: (§1) Liposomes were prepared using a phospholipid solution produced by evaporating solutions containing: phosphatidylethanolamine (PE), phosphatidylserine (PS), phosphatidylcholine (PC), and cholesterol (CH) at a molar ratio of 5:3:3:1 in a small glass tube under a stream of N2 gas, then desiccating under vacuum for 1 h. […] To promote the formation of liposomes, 10 freeze/thaw steps were performed by transferring the tube from liquid nitrogen to a 40° C. water bath. Liposomes were then sized by passing the lipid solution 11 times through a 100-nm polycarbonate membrane using an Avestin LiposoFAST extruder unit (Avestin, Germany). Glycerol was added at 10% of the final volume and aliquots at 10 mg/mL were snap frozen in liquid nitrogen and stored at -80° C. Prior to their use, liposomes were defrosted on ice and then destabilized by incubating with 0.2% CHAPS for 15 min at room temperature. Then 200 μg of purified odorant receptor^14 was added to 1 mg of liposomes and rotated at 10 rpm for 1 h at room temperature. […] The Bio-Beads were removed after each incubation period. The OR integrated liposomes were pelleted by centrifugation at 100,000 g for 1 h, and were resuspended in 500 μL of rehydration buffer. Integration of OrXs into liposomes was assessed by density gradient ultracentrifugation (DGU) using Accudenz (Accurate Chemical & Scientific Corporation, USA). […] The sample was then centrifuged at 100,000 g for 4 h at 4° C. Liposomes will float to the top of the gradient after Accudenz DGU due to their low density. 1.3 Electrode Cleaning Gold disk (2 mm) electrodes were cleaned with polishing with Alumina paste for 2 minutes, ultra-sonicated in pure ethanol and then Milli-Q water for 5 minutes each. […] Charge transfer resistance (Rct) of electrodes were calculated by fitting obtained data to a Randles' equivalent circuit [Rs+CPE/(Rct+W)] comprising of a solution resistance (Rs) in series with a constant phase element (CPE) and in parallel with charge transfer resistance (Rct) and Warburg diffusion element. […]

OR35a = biological target: T2, OR35a; assay: EIS sensor, Or35a liposomes on gold electrode (Example 1); assay type: binding; conditions: lowest three concentrations
Description: as §1

Or22a = biological target: T3, Or22a; assay: EIS sensor, Or22a liposomes on gold electrode (Example 1); assay type: binding; conditions: lowest three concentrations
Description: as §1

Row | Molecule | detection limit (BdorOBP2) | other results
1 | C=CCc1ccc(OC)c(OC)c1 [4-allylveratrole] | ~10^−6 M | 
2 | CCCCOC(=O)c1ccccc1C(=O)OCCCC [dibutyl phthalate] | ~10^−6 M | 
3 | CC(=O)OCCC(C)C [isoamyl acetate] | ~10^−6 M | 
4 | COC(=O)c1ccc(O)cc1 [methy-p-hydroxyl benzoate] | ~10^−6 M | 
5 | O=CCc1ccccc1 [phenylacetaldehyde] | ~10^−6 M | 
6 | CC(=O)/C=C/C1=C(C)CCCC1(C)C [β-ionone] | ~10^−6 M | 
7 | B1 |  | Sensitivity of the sensor (slope of the linear range) (Or10a): 0.313 units/[log(conc/M)]
8 | B2 |  | Sensitivity of the sensor (slope of the linear range) (OR35a): 0.116 units/[log(conc/M)]
9 | B3 |  | Sensitivity of the sensor (slope of the linear range) (Or22a): 0.156 units/[log(conc/M)]
